In US20070217999A1, “Excretable Reporter Systems” (Roslin Institute (Edinburgh), priority 2003, published 2007):

Legend:
[1] = tested on: SFN-hCG(myc) reporter transgene (stratifin promoter) in PC3 xenograft tumours; assay: Induced SFN-hCG(myc) transgene expression from xenografted PC3 cell line in vivo, urinary hCG(myc) by sandwich ELISA; parameters: species or system nude mice; settings: single i.p. camptothecin 15 mg/kg; urine 24 hours after administration; versus vehicle only; FIG. 7
Procedure: The SFN-hCG(myc)-Amp reporter construct generated as described under example 5, was transfected into PC3 cells on 6-well tissue culture plates using FuGene reagent (Roche, Lewes, East Sussex). Construct DNA (equivalent to 1 μg/well) was added to FuGene reagent (3 μl/well) and made up to 100 μl/well with serum free medium. The medium in which the cells were growing was aspirated off and replaced with 100 μl of the above mixture per well. After 24 hours the cells were trypsinised and transferred to 10 cm tissue culture dishes (one well of a six well plate per 10 cm dish). The cells were allowed to grow on these dishes for 7 days prior to selection. […]
The study consisted of 4 groups in total, each containing 4 animals. […] Tumour growth was measured twice-weekly following cell implantation until tumours reached 2-5 mm in diameter. Tumour volume (V) was calculated using the formula: V= 4/3π((d1+d2)/4)^3, where d=mean diameter (n=2)
Treatment began 5 weeks after tumour implantation. […] Quantities of bound HRP were then determined by reaction with tetramethylbenzidine (TMB) and absorbance measurement at 450 nm. No hCG(myc) was detected in the urine of mice carrying xenograft tumours resulting from injection of wild-type PC3 cells. However, hCG(myc) was detected in the urine of mice carrying xenograft tumours resulting from injection of PC3 cells transfected with the SFN-hCG(myc) reporter construct.

[2] = tested on: rat Cyp1A1 promoter (Cyp1A1-SEAP reporter pCW2) in Hepa-C1C7 cells; assay: 3MC induced Cyp1A1-SEAP vector (pCW2) expression in transfected cells, SEAP activity in medium; type: cell-based; settings: 48 hours after induction
Procedure: The sequence coding for 55.5 kD secreted alkaline phosphatase (SEAP), a truncated form of placental alkaline phosphatase enzyme that lacks the GPI anchor, was excised from pSEAP2-Basic (Clonetech) by first converting a BsmI restriction site by removing 3′-overhanging sequences and addition of BglII linker, then excision with BglII.
Hepa-C1C7 cells (cultured in DMEM supplemented with 10% FCS, 2 mM 1-glutamine, at 5% CO2) were transfected with pCW2 either transiently or stably (in conjunction with pSVNeo) using the calcium phosphate co-precipitation method. Briefly, 5 μg of plasmid (+1 μg pSVNeo for stable transfections) was mixed with calcium chloride and HEPES buffered saline to form a calcium phosphate-DNA precipitate which was left incubating with the cells for 5 hours. The medium was then replaced with fresh growth medium or with selection medium (growth medium supplemented with 400 μg/ml G418, for stable transfections). Transiently transfected cells were plated into 6 well plates and were incubated with increasing doses of 3MC dissolved in culture medium. For stable transfections, once individual colonies could be identified on the plates the colonies were pooled and incubated with 2 μg/ml 3MC. Forty eight hours after induction with 3MC the medium was assayed for SEAP activity.
SEAP activity was determined using the “SEAP reporter Gene Assay, chemiluminescent” (Roche). […]

[3] = tested on: Cyp1A1-SEAP transgene (rat Cyp1A1 promoter); assay: 3MC induced Cyp1A1-SEAP vector expression in transgenic mice, SEAP activity in urine and blood
Procedure: 3MC was administered to female and male mice (of at least 8 weeks of age) as a suspension in Mazola brand corn oil by i.p. injection. Test animals were either transgenic or non-transgenic age-matched animals with the same genotype were i.p. injected once every 24 hours with either 40 mg/kg or 0.4 mg/kg body weight 3-methylcholanthrene (3MC) in maize oil for three consecutive injections. Control animals were injected with an equal volume of carrier corn oil only. All animals were killed by cervical dislocation 24 hours following the final dose.
Samples of the liver and kidney were removed, washed once in phosphate buffered saline and then homogenised in HB buffer (140 mM NaCl, 50 mM Tris-HCl pH 7.5, 1 mM EDTA, 1% w/v Triton X-100) using a dounce glass homogeniser until a smooth solution was formed. Insoluble proteins were removed by centrifugation at 13000 rpm for 5 minutes and the cleared supernatant was assayed for protein content using the Pierce protein determination kit. For each tissue a final concentration of 0.8 mg/ml was used in the SEAP assay.
Urine and blood samples were centrifuged at 5000 rpm for 5 minutes to remove any solid waste (from the urine) or coagulated cells (from the blood) and were assayed for SEAP activity immediately. Urine was used undiluted in the assay, whereas blood samples were diluted 1:100 and 1:500 with distilled water prior to the SEAP assay. SEAP activity was assayed as described in example 2.

Compound | urinary hCG(myc) concentration (absorbance at 450 nm) [1] | SEAP activity in medium (3MC induction of pCW2) ([2]; pCW2 stably-transfected into Hepa1 cells, 2 μg/ml 3MC, FIG. 3) | SEAP activity in medium (3MC induction of pCW2) ([2]; pCW2 transiently-transfected into Hepa1 cells, increasing doses of 3MC, FIG. 2) | SEAP in urine of CYS31 transgenic mice ([3]; 0.4 mg/kg 3MC i.p., FIG. 6) | Cyp1a1-SEAP activity detected in urine and blood ([3]; 40 mg/kg 3MC i.p. once every 24 hours, three injections, 3 out of 4 founder transgenic mice analysed (CYS48, CYS50, CYS31, CYS74), FIG. 4) | SEAP activity detected in the urine of transgenic mice ([3]; 3MC i.p., FIG. 5)
CC[C@@]1(O)C(=O)OCc2c1cc1n(c2=O)Cc2cc3ccccc3nc2-1 [camptothecin] | increased urinary hCG(myc) |  |  |  |  | 
Cc1ccc2cc3c(ccc4ccccc43)c3c2c1CC3 [3MC, 3-methylcholanthrene] |  | induction | induction | appearance of SEAP in urine | induction | induced SEAP activity
